In article PMC10778626, “Efficacy of Novel Quaternary Ammonium and Phosphonium Salts Differing in Cation Type and Alkyl Chain Length against Antibiotic-Resistant Staphylococcus aureus” (International Journal of Molecular Sciences, 2023):

Experiments:
[1] = tested on: S. aureus XU212; assay: MIC/MBC by broth microdilution, S. aureus XU212; assay type: cell-based; details: Staphylococcus aureus
Description: (§1) S. aureus CECT 976, obtained from the Spanish Type Culture Collection, was used as the standard susceptibility testing control strain. This strain has been previously employed in diverse studies to validate the antimicrobial effects of novel molecules. Additional antibiotic-resistant strains, S. aureus XU212, SA1199B, and RN4220, generously provided by S. Gibbons (University College London, London, UK) were tested. […] The SA1199B strain is characterized by its resistance to fluoroquinolones due to the overexpression of the NorA efflux pump and its ciprofloxacin resistance.
(§2) The minimum inhibitory concentration (MIC) and minimum bactericidal concentration (MBC) values of all QHSs were determined by the broth microdilution method, according to the approved M7-A7 (aerobes) standards of the Clinical and Laboratory Standards Institute (CLSI) guidelines. Overnight cell cultures of S. aureus, in the exponential phase of growth, were adjusted to an optical density (OD) of 0.132 ± 0.02 (λ = 600 nm). Then, a volume of 180 µL of the cell suspension was added to sterile, flat, clear-bottomed polystyrene (PS) 96-well microtiter plates (VWR—Radnor, PA, USA), already containing 20 µL of each QHS under study at concentrations ranging from 0.0625 to 64 µg/mL. In the end, the volume of each compound never exceeded 10% (v/v) of the well volume. Microtiter plates were then incubated for 24 h at 37 °C under agitation (150 rpm; INCU-Line IL 150R incubator). Absorbance measurements were performed at the beginning (t = 0 h) and end (t = 24 h) of the incubation period using a microtiter plate absorbance reader (BMG LABTECH FLUOstar Omega). Bacterial suspensions with DMSO and without QHSs were used as negative controls. […] All tests were performed with six replicates and a minimum of three independent repeats.
(§3) Plates were incubated at 37 °C for 24 h, and growth was visually inspected. The MBC was determined as the lowest concentration of compound in which the total inhibition of growth on solid medium was observed (no colony forming units (CFUs) were detected). All tests were performed in triplicate, and with a minimum of three independent repeats.

[2] = tested on: S. aureus SA1199B; assay: MIC/MBC by broth microdilution, S. aureus SA1199B; assay type: cell-based; details: Staphylococcus aureus
Description: as §1, §2, §3

[3] = tested on: HepG2 cells; assay: Cytotoxicity by neutral red (NR) uptake; assay type: cell-based, human; details: for NR uptake (lysosomal activity), % of control: HepG2, 24 h; for safety profile (MIC correlated with in vitro human cellular data): concentrations equal to or below 2 µg/mL
Description: The evaluation of the cytotoxicity effects of QHSs was performed using hepatocellular carcinoma (HepG2) cells. […] The cells used for all experiments were taken between the 9th and 13th passages, to avoid phenotypic changes.
The cytotoxicity profile of the compounds under study was evaluated in HepG2 cells (2.5 × 10^5 cells/mL) seeded in 96-well plates. […] Control experiments were performed for viability endpoints by adding the vehicle (medium with 0.1% DMSO) instead of the compound solution.
In the NR uptake assay, following a 24 h incubation period with the test compounds, the cell culture medium was aspirated, and fresh medium containing 150 µL of the dye (at a concentration of […]) was added to the cells. […] After incubation, the cell culture medium was discarded, and a mixture of absolute ethanol and distilled water (1:1) containing 5% acetic acid was added to extract the dye accumulated within the lysosomes of viable cells. The absorbance at 540 nm was measured using a microplate reader (Synergy HTX Multi-Mode Reader—BioTek, Winooski, VT, USA).
For all assays, results are expressed as a percentage of the control (nontreated cells), taken as 100%.

Question: What does the source list for CCCCCCCCCCCCCC[P+](c1ccccc1)(c1ccccc1)c1ccccc1 [Compound 1e, Triphenyl(tetradecyl)phosphonium bromide]?
Answer: MBC [1]: 2 µg/mL; MIC [1]: 2 µg/mL; MBC [2]: 2 µg/mL; MIC [2]: 1 µg/mL; NR uptake (lysosomal activity), % of control ([3]; 1 µg/mL): 53.86 ± 4.854% (****); NR uptake (lysosomal activity), % of control ([3]; 2 µg/mL): 72.84 ± 7.906% (****); NR uptake (lysosomal activity), % of control ([3]; 16 µg/mL): 12.29 ± 3.775% (****); NR uptake (lysosomal activity), % of control ([3]; 32 µg/mL): 13.78 ± 2.666% (****)

Question: With CCCCCCCCCCCCCC[n+]1ccn(C)c1.[Br-] [Compound 2e, 1-Methyl-3-tetradecyl-1H-imidazol-3-ium bromide] as the compound, how does the MBC [1] read?
Answer: 64 µg/mL

Question: And the MIC [1]?
Answer: 32 µg/mL

Question: And the MBC [2]?
Answer: 32 µg/mL

Question: And the MIC [2]?
Answer: 8 µg/mL

Question: And the “NR uptake (lysosomal activity), % of control” value (“NR uptake … % of control” below) ([3]; 2 µg/mL)?
Answer: 86.71 ± 4.103% (****)

Question: What about the “NR uptake … % of control” value ([3]; 16 µg/mL) of the same compound?
Answer: 12.85 ± 2.005% (****)

Question: What about the “NR uptake … % of control” value ([3]; 32 µg/mL) of the same compound?
Answer: 13.64 ± 2.776% (****)

Question: And the “safety profile (MIC correlated with in vitro human cellular data)” value [3]?
Answer: favourable safety profile

Question: What does the source list for CCCCCCCCCCCCCC[n+]1ccc2ccccc2c1.[Br-] [Compound 3e, 2-Tetradecylisoquinolin-2-ium bromide]?
Answer: MBC [1]: 8 µg/mL; MIC [1]: 4 µg/mL; MBC [2]: 8 µg/mL; MIC [2]: 2 µg/mL; NR uptake (lysosomal activity), % of control ([3]; 2 µg/mL): 79.86 ± 9.893% (****); NR uptake (lysosomal activity), % of control ([3]; 16 µg/mL): 12.68 ± 2.385% (****); NR uptake (lysosomal activity), % of control ([3]; 32 µg/mL): 12.77 ± 1.368% (****)

Question: What does the source list for CCCCCCCCCCCCCC[n+]1ccc(C)cc1.[Br-] [Compound 4e, 4-Methyl-1-tetradecylpyridin-1-ium bromide]?
Answer: MBC [1]: 32 µg/mL; MIC [1]: 32 µg/mL; MBC [2]: 32 µg/mL; MIC [2]: 8 µg/mL; NR uptake (lysosomal activity), % of control ([3]; 16 µg/mL): 14.45 ± 2.437% (****); NR uptake (lysosomal activity), % of control ([3]; 32 µg/mL): 21.52 ± 19.06% (****); safety profile (MIC correlated with in vitro human cellular data) [3]: favourable safety profile

Question: Which MBC [1] does the source give for CCCCCCCCCCCCCC[n+]1cccc2ccccc21.[Br-] [Compound 5e, 1-Tetradecylquinolin-1-ium bromide] here?
Answer: 8 µg/mL

Question: And the MIC [1]?
Answer: 8 µg/mL

Question: What about the MBC [2] of the same compound?
Answer: 8 µg/mL

Question: What about the MIC [2] of the same compound?
Answer: 4 µg/mL

Question: And the “NR uptake … % of control” value ([3]; 2 µg/mL)?
Answer: 88.20 ± 3.101% (****)

Question: And the “NR uptake … % of control” value ([3]; 16 µg/mL)?
Answer: 12.06 ± 2.988% (****)

Question: And the “NR uptake … % of control” value ([3]; 32 µg/mL)?
Answer: 14.38 ± 4.045% (****)

Question: What about the “safety profile (MIC correlated with in vitro human cellular data)” value [3] of the same compound?
Answer: favourable safety profile

Question: CCCCCCCCCCCCCC[n+]1ccccc1.[Br-] [Compound 6e, 1-Tetradecylpyridin-1-ium bromide] was tested. Which MBC [1] did it give?
Answer: 64 µg/mL

Question: And the MIC [1]?
Answer: 32 µg/mL

Question: And the MBC [2]?
Answer: 16 µg/mL

Question: And the MIC [2]?
Answer: 16 µg/mL

Question: And the “NR uptake … % of control” value ([3]; 16 µg/mL)?
Answer: 10.46 ± 3.129% (****)

Question: And the “NR uptake … % of control” value ([3]; 32 µg/mL)?
Answer: 12.93 ± 3.760% (****)
